For this assay, the system named is BDF1 mice, P388 leukemia ip, median survival T/C. Briefly: NCI In Vivo Anticancer Drug Screen. Data for tumor model P388 Leukemia (intraperitoneal) in B6D2F1 (BDF1) mice. As to conditions: endpoint: median survival time, higher = longer survival. An outline of the steps:
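Compound-treated tumour-bearing mice were compared with vehicle-treated controls. Survival was recorded, and the value is the treated-group measurement divided by the control-group measurement (T/C).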

The mark [1] stands for this setting: dose: 200.0 mg/kg/injection, schedule: Q04DX003 (ip), vehicle: Klucel (hydroxypropylcellulose) (HPC).
Where [2] appears, read: dose: 25.0 mg/kg/injection, schedule: Q01DX009 (ip), vehicle: Klucel (hydroxypropylcellulose) (HPC).
Where [3] appears, read: dose: 50.0 mg/kg/injection, schedule: Q01DX009 (ip), vehicle: Klucel (hydroxypropylcellulose) (HPC).
Setting [4] is: dose: 100.0 mg/kg/injection, schedule: Q04DX003 (ip), vehicle: saline.
Where [5] appears, read: dose: 100.0 mg/kg/injection, schedule: Q04DX003 (ip), vehicle: saline with Tween-80.
Where [6] appears, read: dose: 200.0 mg/kg/injection, schedule: Q04DX003 (ip), vehicle: saline with Tween-80.
Setting [7] is: dose: 100.0 mg/kg/injection, schedule: Q01DX009 (ip), vehicle: Klucel (hydroxypropylcellulose) (HPC).
Where [8] appears, read: dose: 100.0 mg/kg/injection, schedule: Q04DX003 (ip), vehicle: Klucel (hydroxypropylcellulose) (HPC).
The mark [9] stands for this setting: dose: 200.0 mg/kg/injection, schedule: Q01DX009 (ip), vehicle: Klucel (hydroxypropylcellulose) (HPC).
The mark [10] stands for this setting: dose: 400.0 mg/kg/injection, schedule: Q04DX003 (ip), vehicle: Klucel (hydroxypropylcellulose) (HPC).
The mark [11] stands for this setting: dose: 100.0 mg/kg/injection, schedule: Q01DX009 (ip), vehicle: saline with Tween-80.
The mark [12] stands for this setting: dose: 200.0 mg/kg/injection, schedule: Q01DX009 (ip), vehicle: saline with Tween-80.
[13] abbreviates: dose: 25.0 mg/kg/injection, schedule: Q01DX009 (ip), vehicle: saline with Tween-80.
[14] abbreviates: dose: 50.0 mg/kg/injection, schedule: Q01DX009 (ip), vehicle: saline with Tween-80.

Where “and” joins values, the source holds several entries; their conditions need not be identical. Equal values may be shown once. Inconclusive results and toxic doses are left out.

Turning to `O=C1OC(=O)C2C1C1C3C=CC3C1C21C=C1` (stereo not drawn), the T/C is 95 % of control (dose: 85.0 mg/kg/injection, schedule: Q04DX003 (ip), vehicle: Klucel (hydroxypropylcellulose) (HPC)); 113 % of control and 116 % of control (dose: 100.0 mg/kg/injection, schedule: Q01DX001 (ip), vehicle: saline); 104 % of control (dose: 135.0 mg/kg/injection, schedule: Q04DX003 (ip), vehicle: Klucel (hydroxypropylcellulose) (HPC)); 113 % of control (dose: 200.0 mg/kg/injection, schedule: Q01DX001 (ip), vehicle: saline); 113 % of control under setting [1]; 118 % of control (dose: 300.0 mg/kg/injection, schedule: Q04DX003 (ip), vehicle: Klucel (hydroxypropylcellulose) (HPC)). Further, the T/C (dose: 400.0 mg/kg/injection, schedule: Q01DX001 (ip), vehicle: saline) was 100 % of control and 104 % of control.
For the compound `C1=CC23C4CCC2C2C4C4C(=C1)C3C2N1CCCCC41` (stereo not drawn), the T/C by setting is: (dose: 12.5 mg/kg/injection, schedule: Q01DX009 (ip), vehicle: Klucel (hydroxypropylcellulose) (HPC)) 104 % of control; under setting [2], 100 % of control; (dose: 37.5 mg/kg/injection, schedule: Q04DX003 (ip), vehicle: Klucel (hydroxypropylcellulose) (HPC)) 91 % of control; under setting [3], 100 % of control; (dose: 75.0 mg/kg/injection, schedule: Q04DX003 (ip), vehicle: Klucel (hydroxypropylcellulose) (HPC)) 100 % of control.
For the compound `C1=NCCCN1`, the T/C runs as follows: (dose: 25.0 mg/kg/injection, schedule: Q04DX003 (ip), vehicle: saline) 100 % of control; (dose: 50.0 mg/kg/injection, schedule: Q04DX003 (ip), vehicle: saline) 100 % of control; under setting [4], 100 % of control.
`Cn1nc(NC(=O)C(F)(F)F)c2ncc(-c3ccccc3)nc21`: the T/C runs as follows: (dose: 50.0 mg/kg/injection, schedule: Q04DX003 (ip), vehicle: saline with Tween-80) 105 % of control; under setting [5], 100 % of control; under setting [6], 100 % of control.
Take `CC1SC(c2ccccc2)N(c2ccccc2)C1=O` (stereo not drawn): the T/C is, setting by setting: under setting [7], 104 % of control; under setting [8], 104 % of control; under setting [9], 116 % of control; under setting [1], 104 % of control; (dose: 400.0 mg/kg/injection, schedule: Q01DX009 (ip), vehicle: Klucel (hydroxypropylcellulose) (HPC)) 100 % of control; under setting [10], 109 % of control.
As to `C[C@]12C=CC(=O)C=C1CC[C@H]1[C@@H]3CCC(=O)O[C@@]3(C)CC(=O)[C@@]12F`, the T/C under setting [11] is 100 % of control; the T/C under setting [12] is 100 % of control; the T/C (dose: 400.0 mg/kg/injection, schedule: Q01DX009 (ip), vehicle: saline with Tween-80) was 100 % of control.
Consider `COC(CN1C(=O)CSC1=S)OC`, for which the T/C reads like this: under setting [13], 100 % of control; under setting [14], 104 % of control and 117 % of control; under setting [12], 109 % of control.
In the case of `O=C(CNC(=O)n1ccnc1)N/N=C/c1ccccc1O`, the T/C reads like this: (dose: 50.0 mg/kg/injection, schedule: Q01DX005 (ip), vehicle: saline with Tween-80) 102 % of control; (dose: 100.0 mg/kg/injection, schedule: Q01DX005 (ip), vehicle: saline with Tween-80) 98 % of control; (dose: 200.0 mg/kg/injection, schedule: Q01DX005 (ip), vehicle: saline with Tween-80) 100 % of control.
Take `S=P(S)(c1ccccc1)c1ccccc1`: the T/C was 90 % of control (dose: 80.5 mg/kg/injection, schedule: Q01DX009 (ip), vehicle: saline); 116 % of control (dose: 106.26 mg/kg/injection, schedule: Q01DX009 (ip), vehicle: saline); 95 % of control (dose: 241.5 mg/kg/injection, schedule: Q01DX009 (ip), vehicle: saline).
In the case of `O=NN(CCCl)C(=O)Nc1cccc(O)c1`, the T/C (dose: 22.0 mg/kg/injection, schedule: Q04DX003 (ip), vehicle: Klucel (hydroxypropylcellulose) (HPC)) was 190 % of control; the T/C under setting [2] was 215 % of control; the T/C (dose: 33.0 mg/kg/injection, schedule: Q04DX003 (ip), vehicle: Klucel (hydroxypropylcellulose) (HPC)) was 186 % of control; the T/C (dose: 35.0 mg/kg/injection, schedule: Q01DX009 (ip), vehicle: Klucel (hydroxypropylcellulose) (HPC)) is 100 % of control; the T/C under setting [3] was 88 % of control and 215 % of control; the T/C (dose: 50.0 mg/kg/injection, schedule: Q04DX003 (ip), vehicle: Klucel (hydroxypropylcellulose) (HPC)) is 186 % of control. Further, the T/C by setting is: (dose: 66.0 mg/kg/injection, schedule: Q04DX003 (ip), vehicle: saline) 222 % of control; (dose: 75.0 mg/kg/injection, schedule: Q01DX009 (ip), vehicle: Klucel (hydroxypropylcellulose) (HPC)) 158 % of control; under setting [7], 105 % of control; under setting [8], 222 % of control; under setting [4], 272 % of control.
`O=C1c2ccccc2C(=O)c2c(Cl)cccc21`: the T/C was 113 % of control (dose: 12.5 mg/kg/injection, schedule: Q01DX009 (ip), vehicle: saline with Tween-80); 100 % of control under setting [13]; 100 % of control under setting [14]; 95 % of control under setting [5]; 100 % of control under setting [6]; 95 % of control (dose: 400.0 mg/kg/injection, schedule: Q04DX003 (ip), vehicle: saline with Tween-80).
Consider `Cc1ccc(NS(=O)(=O)c2ccc(F)cc2)cc1Cl`, for which the T/C under setting [8] is 109 % of control, the T/C under setting [1] is 100 % of control and the T/C under setting [10] is 104 % of control.
Take `Cc1cc2c(c(O)c1-c1c(C)cc(O)c3c1C(=O)C=CC3=O)C(=O)C=CC2=O`: the T/C (dose: 1.25 mg/kg/injection, schedule: Q01DX009 (ip), vehicle: saline with Tween-80) is 107 % of control; the T/C (dose: 2.5 mg/kg/injection, schedule: Q01DX009 (ip), vehicle: saline with Tween-80) was 114 % of control; the T/C (dose: 5.0 mg/kg/injection, schedule: Q01DX009 (ip), vehicle: saline with Tween-80) was 103 % of control.
With `O=C1OC(=O)C2C1C(c1ccc(Cl)cc1)N1C3C(=O)OC(=O)C3C(c3ccc(Cl)cc3)N21` (stereo not drawn), the T/C runs as follows: under setting [14], 97 % of control; under setting [11], 93 % of control; under setting [12], 88 % of control.
For `O=C(Nc1ccccc1)C1(Br)CC2(C1)CC(Br)(C(=O)Nc1ccccc1)C2` (stereo not drawn), the T/C is, setting by setting: (dose: 100.0 mg/kg/injection, schedule: Q01DX001 (ip), vehicle: saline with Tween-80) 92 % of control; (dose: 200.0 mg/kg/injection, schedule: Q01DX001 (ip), vehicle: saline with Tween-80) 99 % of control.
`CN(N=O)c1ccc(N(C)N=O)cc1`: the T/C is, setting by setting: under setting [3], 95 % of control; under setting [7], 95 % of control; under setting [8], 95 % of control; under setting [9], 90 % of control; under setting [1], 105 % of control; under setting [10], 95 % of control.
Turning to `CO/N=C/c1cccnc1`, the T/C by setting is: (dose: 50.0 mg/kg/injection, schedule: Q01DX005 (ip), vehicle: saline) 101 % of control; (dose: 100.0 mg/kg/injection, schedule: Q01DX005 (ip), vehicle: saline) 105 % of control.
For `CC12CCC(OC3OC(CO)C(O)C(O)C3O)CC1CCC1C2CCC2(C)C(C3=CC(=O)OC3)CCC12O` (stereo not drawn), the T/C is 86 % of control (dose: 40.0 mg/kg/injection, schedule: Q01DX009 (ip), vehicle: saline); 86 % of control (dose: 80.0 mg/kg/injection, schedule: Q01DX009 (ip), vehicle: saline); 95 % of control (dose: 160.0 mg/kg/injection, schedule: Q01DX009 (ip), vehicle: saline).
As for `CC(=O)[C@]1(O)Cc2c(O)c3c(c(O)c2[C@@H](OC2CC(N)C(O)C(C)O2)C1)C(=O)c1c(OC(C)C)cccc1C3=O` (stereo partly drawn), the T/C runs as follows: (dose: 6.25 mg/kg/injection, schedule: Q04DX003 (ip), vehicle: water) 118 % of control; (dose: 12.5 mg/kg/injection, schedule: Q04DX003 (ip), vehicle: water) 162 % of control; (dose: 50.0 mg/kg/injection, schedule: Q04DX003 (ip), vehicle: water) 89 % of control.
